Experimental data reported in US20080317702A1, “METHOD FOR TREATING MICROORGANISMS AND/OR INFECTIOUS AGENTS” (priority 2007, published 2008).
Where “and” joins values, the source holds several entries; their conditions need not be identical. Identical values can stand only once.

Tested on: HeLa cells
Test: Toxicity to HeLa cells in culture, MTT (Example 23)
Assay type: cell-based, human
Conditions: 48 hours of culture
Procedure: The toxicity of Example 1 is compared to Chlorohexidine gluconate (a commonly used oral antiseptic) to human HeLa cells in culture is determined. HeLa cells are plated at subconfluency into a 96-well plate tissue culture plate, and after attachment, treated with the indicated final concentrations of Example 1 polymer or Chlorohexidine gluconate in triplicates. After 48 hours of culture, MTT reagent is added for two 2 hours to permit the development of viability-indicating color. 1 μM PAO (phenylarsine oxide) is used as a positive (effective killing) control. […] Furthermore, the minimum inhibitory concentration of Example 1 polymer is found to be about 10^−3% while that for the chlorohexidine gluconate is 6×10^−5%. This means that the Example 1 polymer is about […] less toxic to HeLa cells in culture than chlorohexidine gluconate.

With `N=C(NCCCCCCNC(=N)NC(=N)Nc1ccc(Cl)cc1)NC(=N)Nc1ccc(Cl)cc1.O=C(O)[C@H](O)[C@@H](O)[C@H](O)[C@H](O)CO.O=C(O)[C@H](O)[C@@H](O)[C@H](O)[C@H](O)CO` [chlorohexidine gluconate] the “Lethal dose 50 (LD50) for HeLa cells” value was ~0.0004% and > 1.2×10^−4%.
